In patent US7235576B1, “Omega-carboxyaryl substituted diphenyl ureas as raf kinase inhibitors” (Bayer Pharmaceuticals Corporation, priority 2001, dated 2007) one finds melting point data, which are given here for 2 compounds.

`CNC(=O)c1cc(Oc2ccc(NC(=O)Nc3ccc(Oc4ccnc(C(=O)NC)c4)cc3)cc2)ccn1` [Entry 103, bis(4-(2-(N-methylcarbamoyl)-4-pyridyloxy)phenyl)urea]: the melting point was 125 to 130 °C.
To `COC(=O)c1ccc(Oc2ccc(NC(=O)Nc3ccc(Cl)c(C(F)(F)F)c3)cc2)cn1` [Entry 55, N-(4-chloro-3-(trifluoromethyl)phenyl)-N′-(4-(2-(methoxycarbonyl)-5-pyridyloxy)phenyl)urea] belongs 228 to 230 °C.
